Data from publication PMC7542481, “Synthesis of Amino Acid Schiff Base Nickel (II) Complexes as Potential Anticancer Drugs In Vitro” (Bioinorganic Chemistry and Applications, 2020).

How the values were obtained:
breast cancer MCF-7 = experiment: MTT cytotoxicity assay, MCF-7; assay type: cell-based, human; settings: treatment 48 h
Method: (§1) 3-(4,5-Dimethylthiazol-2-yl)-2, 5-diphenyltetrazolium bromide (MTT) method was used to assay the cytotoxicity in vitro. Complexes 1–3, ligands (L1, L2, and L3), Ni (CH3COO)2, and cisplatin were dissolved in DMSO at the concentration of 20 mM as a stock solution for subsequent testing. Four different cancer cell lines (MCF-7, SGC-7901, Eca-109, and HepG2) and one normal cell line (HSF) were seeded in 96-well and cultured at 37 °C in 5% CO2. After 24 h, the medium was replaced by different concentrations of complex and incubated for 48 h. 10 μL MTT dye (5 mg/mL) was added to each well and incubated for another 4 h. After that, the medium was removed and DMSO (100 μL) was added to solubilize the MTT formazan. A microplate reader (Bio-Rad iMark™) was used to measure the OD value of each well at a wavelength of 490 nm. Each experiment was repeated at least three times, and GraphPad Prism 5.0 was used to analyze the IC50 values.

[1] = tested on: hepatocellular carcinoma HepG2; experiment: MTT cytotoxicity assay, HepG2; assay type: cell-based, human; settings: treatment 48 h
Method: as §1

gastric cancer SGC-7901 = experiment: MTT cytotoxicity assay, SGC-7901; assay type: cell-based, human; settings: treatment 48 h
Method: as §1

[2] = tested on: esophageal cancer Eca-109; experiment: MTT cytotoxicity assay, Eca-109; assay type: cell-based, human; settings: treatment 48 h
Method: as §1

normal human cells HSF = experiment: MTT cytotoxicity assay, HSF; assay type: cell-based; settings: treatment 48 h
Method: as §1

Bax = experiment: Western blot assay, Bax; assay type: cell-based, human; settings: Eca-109, 24 h, concentration-dependent
Method: (§2) After incubation with different concentrations of complex 2, cells were harvested in a radioimmunoprecipitation assay (RIPA) buffer with protease inhibitors and phosphatase inhibitors. BCA Protein Assay Kit was used to determine the protein concentration. Then, the expression levels of proteins associated with Bcl-2 family and autophagy were measured by Western blot assay.

p62 = experiment: Western blot assay, p62; assay type: cell-based, human; settings: Eca-109, 24 h, concentration-dependent
Method: as §2

Eca-109 cells [3] = experiment: Mitochondrial membrane potential by JC-1 staining, flow cytometry; assay type: cell-based, human; settings: 24 h, control 4.69%
Method: After being treated with different concentrations of complex 2, the cells were collected and incubated in 500 μL PBS containing 10 μg/mL JC-1 for 20 min at 37°C in the dark. Then, the cells were resuspended in PBS and analyzed by flow cytometry (BD FACS Aria III).

Eca-109 cells [4] = experiment: AO/EB double staining, fluorescence microscopy; assay type: cell-based, human; settings: Eca-109, 20 μM and 40 μM, 24 h
Method: AO/EB double staining was used to observe the changes in apoptotic cells. Eca-109 cells were cultured in a 6-well plate for 24 h. Then, cells were treated with different concentrations of complex 2 for another 24 h. After that, cells were washed twice with ice-cold PBS, stained with 100 μg/mL AO/EB for 10 minutes, and photographed by fluorescence microscopy (Nikon Eclipse Ti–E, Nikon Instruments Inc., Japan).

Bcl-xL = experiment: Western blot assay, Bcl-xL; assay type: cell-based, human; settings: Eca-109, 24 h, concentration-dependent
Method: as §2

Eca-109 cells [5] = experiment: Annexin V-PE/7-AAD staining apoptosis assay by flow cytometry (with or without NAC or 3-MA pretreatment); assay type: cell-based, human; settings: for percentage of apoptotic cells: 24 h, control 7.30%
Method: N-acetyl-L-cysteine (NAC), as a ROS scavenger, was added in a medium for 1 h before the addition of complex 2 to examine the effect of ROS on cell viability. The percentage of apoptotic cells was detected by Annexin V-PE/7-AAD staining assay after complex 2 treatment with or without NAC.
Different stages of apoptosis induced by complex 2 were determined by Annexin V-PE and 7-AAD staining according to the manufacture's protocol for the Annexin V Apoptosis Detection Kit (BD, Bioscience). Eca-109 cells were seeded in a 6-well plate with a density of 2 × 10^5 cells per well and cultured at 37°C in 5% CO2 for 24 h. Then, different concentrations of complex 2 were added into the above well and incubated for another 24 h. The cells were resuspended in binding buffer, stained with 5 μL Annexin V-PE and 5 μL 7-AAD at room temperature for 15 min, and analyzed using the flow cytometer (BD FACS Aria III).
3-MA, as an autophagic inhibitor, was added in a medium for 1 h before the addition of complex 2 to examine the effect of autophagy on cell viability. The percentage of apoptotic cells was detected by Annexin V-PE/7-AAD staining assay after complex 2 treatment with or without 3-MA.

Eca-109 cells [6] = experiment: Intracellular ROS level, DCFH-DA probe; assay type: cell-based, human; settings: Eca-109, 20 μM and 40 μM, 24 h
Method: Eca-109 cells were seeded into a 6-well plate at a density of 2 × 10^5 cells per well and incubated for 24 h. Then, the medium was replaced and incubated with different concentrations of complex 2 for another 24 h. After that, cells were washed twice with ice-cold PBS, stained with 10 μM DCFH-DA for 30 minutes, and photographed by fluorescence microscopy (Nikon Eclipse Ti–E, Nikon Instruments Inc., Japan).

Beclin-1 = experiment: Western blot assay, Beclin-1; assay type: cell-based, human; settings: Eca-109, 24 h, concentration-dependent
Method: as §2

Eca-109 cells [7] = experiment: Autophagy assay, MDC staining; assay type: cell-based, human; settings: Eca-109, 20 μM and 40 μM, 24 h, compared to the control group
Method: Eca-109 cells were seeded in 6-well plates and incubated at 37 °C in 5% CO2 for 24 h. Then, the medium was replaced with different concentrations of complex 2 for another 24 h. After that, the medium was removed and the cells were washed twice with ice-cold PBS. Then, the cells were stained with MDC (monodansylcadaverine) solution (50 μM) for 15 min, and the data were obtained by flow cytometry (BD FACS Aria III).

LC3B-II = experiment: Western blot assay, LC3B-II; assay type: cell-based, human; settings: Eca-109, 24 h, concentration-dependent
Method: as §2

Bad = experiment: Western blot assay, Bad; assay type: cell-based, human; settings: Eca-109, 24 h, concentration-dependent
Method: as §2

Eca-109 cells [8] = experiment: Hoechst 33342 staining, fluorescence microscopy; assay type: cell-based, human; settings: Eca-109, 20 μM and 40 μM, 24 h
Method: With the density of 2 × 10^5 cells per well, Eca-109 cells were cultured in a 6-well plate for 24 h. After that, the medium was replaced by different concentrations of complex 2 and incubated for another 24 h. Then, cells were washed twice with ice-cold PBS, stained with 10 μg/mL Hoechst 33342 for 15 minutes, and photographed by fluorescence microscopy (Nikon Eclipse Ti–E, Nikon Instruments Inc., Japan).

Eca-109 cells [9] = experiment: Cell cycle arrest assay, PI staining, flow cytometry; assay type: cell-based, human; settings: for percentage of cells in S phase / percentage in the cell at the G2/M phase / percentage in the cell at the G0/G1 phase: 24 h; for percentage in the cell at the G2/M phase: control 6.35%; for percentage in the cell at the G0/G1 phase: control 63.82%
Method: After treatment with different concentrations of complex 2, the cells were collected and fixed with 70% ethanol for the night. Then, the cells were incubated in 500 μL PBS containing Triton X-100 (0.1% v/v), RNase A (0.2 mg/mL), and propidium iodide (PI, 0.02 mg/mL) for 15 min. Then, the cells were analyzed by flow cytometry (BD FACS Aria III).

Bcl-2 = experiment: Western blot assay, Bcl-2; assay type: cell-based, human; settings: Eca-109, 24 h, concentration-dependent
Method: as §2

Structure (SMILES): N.N.[Cl][Pt][Cl] [Cisplatin, reference compound]
- IC50 (breast cancer MCF-7): 12.3 ± 0.75 µM
- IC50 [1]: 13.9 ± 0.58 µM
- IC50 (gastric cancer SGC-7901): 11.7 ± 1.45 µM
- IC50 [2]: 11.9 ± 0.19 µM
- IC50 (normal human cells HSF): 17.1 ± 1.31 µM

Structure (SMILES): O=C1[O][Ni][O]c2ccccc2C=N[C@@H]1Cc1c[nH]c2ccccc12.c1cnc2c(c1)ccc1cccnc12 [Complex 1, [Ni (Trp-sal) (phen) (CH3OH)]]
- IC50 (breast cancer MCF-7): 75.75 ± 0.41 µM
- IC50 [1]: > 80 µM
- IC50 (gastric cancer SGC-7901): 34 ± 2.5 µM
- IC50 [2]: 23.9 ± 2.54 µM
- IC50 (normal human cells HSF): 60.9 ± 1.76 µM

Structure (SMILES): CO.CO.CO.COc1cccc(C=N[C@H](Cc2c[nH]c3ccccc23)C(=O)[O-])c1[O-].[Ni+2].c1cnc2c(c1)ccc1cccnc12 [Complex 2, [Ni (Trp-o-van) (phen) (CH3OH)]•2CH3OH]
- expression level of Bax (Bax): significantly increased
- IC50 (breast cancer MCF-7): 16.1 ± 1.32 µM
- IC50 [1]: 47.29 ± 0.35 µM
- expression level of p62 (p62): decreased
- IC50 (gastric cancer SGC-7901): 15.7 ± 1.46 µM
- green fluorescence of the JC-1 monomers (loss of MMP) (Eca-109 cells [3]; Eca-109, 20 μM): 6.86%
- green fluorescence of the JC-1 monomers (loss of MMP) (Eca-109 cells [3]; Eca-109, 40 μM): 49.5%
- IC50 [2]: 18.1 ± 2.39 µM
- morphological changes, AO/EB staining (Eca-109 cells [4]): nuclear shrinkage, chromatin condensation, and late apoptotic cells containing red apoptotic bodies
- expression level of Bcl-xL (Bcl-xL): significantly decreased
- percentage of apoptotic cells (Eca-109 cells [5]; Eca-109, 20 μM): 8.78%
- percentage of apoptotic cells (Eca-109 cells [5]; Eca-109, 40 μM): 29.40%
- percentage of apoptosis cells with NAC pretreatment versus without (Eca-109 cells [5]; Eca-109, 24 h, NAC added 1 h before): reduced
- intracellular ROS level (DCF fluorescence) (Eca-109 cells [6]): increase the intracellular ROS level in a dosage-dependent manner
- expression level of Beclin-1 (Beclin-1): increased
- MDC staining intensity (autophagy level) (Eca-109 cells [7]): increased significantly
- expression level of LC3B-II (LC3B-II): increased
- expression level of Bad (Bad): significantly increased
- apoptotic characteristics, Hoechst 33342 staining (Eca-109 cells [8]): apoptotic characteristics were also observed
- IC50 (normal human cells HSF): 23.9 ± 0.74 µM
- cell cycle arrest (in words) (Eca-109 cells [9]; Eca-109): cell cycle arrest in the G2/M phase
- percentage of cells in S phase (Eca-109 cells [9]; Eca-109, 20 μM): 33.27%
- percentage in the cell at the G2/M phase (Eca-109 cells [9]; Eca-109, 20 μM): 7.21%
- percentage in the cell at the G0/G1 phase (Eca-109 cells [9]; Eca-109, 20 μM): 59.51%
- percentage of cells in S phase (Eca-109 cells [9]; Eca-109, 40 μM): 31.32%
- percentage in the cell at the G2/M phase (Eca-109 cells [9]; Eca-109, 40 μM): 19.84%
- percentage in the cell at the G0/G1 phase (Eca-109 cells [9]; Eca-109, 40 μM): 48.84%
- expression level of Bcl-2 (Bcl-2): significantly decreased

Structure (SMILES): O=C([O-])[C@@H](Cc1c[nH]c2ccccc12)N=Cc1c([O-])ccc2ccccc12.[Ni+2].c1cnc2c(c1)ccc1cccnc12 [Complex 3, [Ni (Trp-naph) (phen) (CH3OH)]]
- IC50 (breast cancer MCF-7): 23.7 ± 0.55 µM
- IC50 [1]: 28.1 ± 1.34 µM
- IC50 (gastric cancer SGC-7901): 24.3 ± 0.95 µM
- IC50 [2]: 21.9 ± 3.19 µM
- IC50 (normal human cells HSF): 32.5 ± 1.98 µM

Structure (SMILES): Cn1cnc(N)c2ncnc1-2 [Complex 3-MA, 3-methyladenine, reference compound]
- toxicity toward cells (Eca-109 cells [5]; Eca-109, 3-MA alone): nontoxicity

Structure (SMILES): O=C(O)C(Cc1c[nH]c2ccccc12)N=Cc1ccccc1O (stereo not drawn) [Complex L1]
- IC50 (breast cancer MCF-7): > 80 µM
- IC50 [1]: > 80 µM
- IC50 (gastric cancer SGC-7901): > 80 µM
- IC50 [2]: > 80 µM

Structure (SMILES): COc1cccc(C=N[C@H](Cc2c[nH]c3ccccc23)C(=O)O)c1O [Complex L2]
- IC50 (breast cancer MCF-7): > 80 µM
- IC50 [1]: > 80 µM
- IC50 (gastric cancer SGC-7901): > 80 µM
- IC50 [2]: > 80 µM

Structure (SMILES): O=C(O)[C@@H](Cc1c[nH]c2ccccc12)N=Cc1c(O)ccc2ccccc12 [Complex L3]
- IC50 (breast cancer MCF-7): > 80 µM
- IC50 [1]: > 80 µM
- IC50 (gastric cancer SGC-7901): 42.7 ± 1.13 µM
- IC50 [2]: 48.4 ± 4.99 µM

Structure (SMILES): CC(=O)[O-].CC(=O)[O-].[Ni+2] [Ni (CH3COO)2, reference compound]
- IC50 (breast cancer MCF-7): > 80 µM
- IC50 [1]: > 80 µM
- IC50 (gastric cancer SGC-7901): 41.4 ± 0.87 µM
- IC50 [2]: 43.5 ± 1.34 µM
